# Literature values as cited in patent publication EP0358033B1, “Radical polymerizable compositions and their use” (Henkel Kommanditgesellschaft auf Aktien, priority 1988, dated 1990).
# Details: free acid
row,SMILES,pKS-Wert
1,O=C(O)C(Cl)(Cl)Cl [Trichloressigsäure],"~0,6"
2,O=C(O)C(Cl)Cl [Dichloressigsäure],"~1,3"
3,CC(=O)O [Essigsäure],"~4,76"
